Measurements published in patent US8318668B2 (Trustees of Tufts College, priority 2005, dated 2012).
One block for each molecule: values may come before it. Square brackets hold non-standard residues; d marks the D form. Ends that are not written are not given here. Peptide text beside a SMILES is read from it. Tle = CC(C)(C)[C@H](N)C(=O)O

How the values were obtained:
[1] = biological target: rat DPP IV (Rattus norvegicus, UniProt P14740); assay: Digestion of model hexapeptides by rat DPP IV (LCMS); conditions: for half-life: pH 8
Excerpt: The data were fit to a single phase exponential equation.
DPP-IV cleaves the N-terminal dipeptide from peptides with either Pro or Ala in the penultimate position (P2).

[2] = tested on: db mice; assay: Time course of blood glucose lowering in db mice; conditions: 8 μg injected; for duration of action (in words): db / diabetic mice
Procedure: At each time point the percent change in blood glucose was determined for 10 mice and the average change±SEM is plotted.
At each time point, the percentage change in blood glucose was determined for 10 mice and the average change±SEM is plotted.
In an exemplary embodiment, for treatment of the mice with a regimen including a peptide hormone analog or control, sub-orbital sinus blood samples are taken before and at some time (e.g., 60 minutes) after dosing of each animal. Blood glucose measurements can be made by any of several conventional techniques, such as using a glucose meter. The blood glucose levels of the control and peptide hormone analog dosed animals are compared

[3] = tested on: db mice; assay: Dose response of blood glucose lowering in diabetic (db) mice; assay type: in vivo; conditions: blood glucose 60 minutes post injection
Excerpt: The data were fit to a sigmoidal dose response curve.

[4] = biological target: human GLP-1 receptor (Homo sapiens, UniProt P43220); conditions: peptide concentration 300 nM
human GLP-1 receptor, sequence (P43220 24-463): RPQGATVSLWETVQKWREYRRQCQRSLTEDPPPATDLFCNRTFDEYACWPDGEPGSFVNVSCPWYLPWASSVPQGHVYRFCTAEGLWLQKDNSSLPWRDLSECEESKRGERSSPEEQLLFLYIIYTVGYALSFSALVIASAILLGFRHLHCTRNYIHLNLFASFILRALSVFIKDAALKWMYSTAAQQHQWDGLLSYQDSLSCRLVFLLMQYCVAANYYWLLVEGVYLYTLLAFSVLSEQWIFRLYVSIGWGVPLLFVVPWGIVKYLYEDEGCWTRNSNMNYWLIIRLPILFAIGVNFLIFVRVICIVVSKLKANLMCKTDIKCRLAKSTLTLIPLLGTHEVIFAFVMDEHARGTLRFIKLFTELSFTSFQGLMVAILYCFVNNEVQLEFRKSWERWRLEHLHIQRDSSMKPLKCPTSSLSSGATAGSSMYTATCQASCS
Procedure: Peptides were tested for agonist activity at a concentration of 300 nM. The data represent the mean±SEM with n=4.
Data values∓SEM are plotted and fit to a sigmoidal dose-response curve.

rat DPP IV, sequence (P14740 whole entry): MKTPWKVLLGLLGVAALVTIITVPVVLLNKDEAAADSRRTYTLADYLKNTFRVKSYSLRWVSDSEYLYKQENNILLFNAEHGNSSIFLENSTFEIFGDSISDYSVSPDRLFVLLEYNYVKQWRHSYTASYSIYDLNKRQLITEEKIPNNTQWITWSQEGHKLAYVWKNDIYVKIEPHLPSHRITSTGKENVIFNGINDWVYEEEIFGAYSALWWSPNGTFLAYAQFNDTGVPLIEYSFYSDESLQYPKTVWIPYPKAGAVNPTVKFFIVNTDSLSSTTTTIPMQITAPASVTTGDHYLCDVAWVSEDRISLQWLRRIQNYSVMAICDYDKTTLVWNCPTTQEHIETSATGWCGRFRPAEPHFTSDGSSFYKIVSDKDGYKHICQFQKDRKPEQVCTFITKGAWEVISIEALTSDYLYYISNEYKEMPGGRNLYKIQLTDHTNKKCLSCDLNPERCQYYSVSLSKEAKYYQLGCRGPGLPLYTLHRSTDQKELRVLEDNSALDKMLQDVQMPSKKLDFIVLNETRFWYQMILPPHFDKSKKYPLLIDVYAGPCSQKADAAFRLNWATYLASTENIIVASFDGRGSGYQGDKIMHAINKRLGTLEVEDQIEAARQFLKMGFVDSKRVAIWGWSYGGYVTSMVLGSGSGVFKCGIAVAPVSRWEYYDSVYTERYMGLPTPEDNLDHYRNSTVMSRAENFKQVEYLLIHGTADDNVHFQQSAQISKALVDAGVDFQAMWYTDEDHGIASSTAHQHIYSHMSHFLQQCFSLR

cleavage by rat DPP IV (in words) [1]: No reaction was observed
Molecule: C[C@H](N)C(=O)N1CCC[C@H]1C(=O)N[C@H](C(=O)N[C@@H](CO)C(=O)N[C@@H](Cc1c[nH]c2ccccc12)C(=O)N[C@@H](CO)C(N)=O)C(C)(C)C [Ala-Pro-Tle-Ser-Trp-Ser-NH2] (H-AP[Tle]SWS-NH2)

Molecule: CC[C@H](C)[C@H](NC(=O)[C@H](Cc1ccccc1)NC(=O)[C@H](CCC(=O)O)NC(=O)[C@H](CCCCN)NC(=O)[C@H](C)NC(=O)[C@H](C)NC(=O)[C@H](CCC(N)=O)NC(=O)CNC(=O)[C@H](CCC(=O)O)NC(=O)[C@H](CC(C)C)NC(=O)[C@H](Cc1ccc(O)cc1)NC(=O)[C@H](CO)NC(=O)[C@H](CO)NC(=O)[C@@H](NC(=O)[C@H](CC(=O)O)NC(=O)[C@H](CO)NC(=O)[C@@H](NC(=O)[C@H](Cc1ccccc1)NC(=O)[C@@H](NC(=O)CNC(=O)[C@H](CCC(=O)O)NC(=O)[C@H](C)NC(=O)[C@@H](N)Cc1c[nH]cn1)[C@@H](C)O)[C@@H](C)O)C(C)C)C(=O)N[C@@H](C)C(=O)N[C@@H](Cc1c[nH]c2ccccc12)C(=O)N[C@@H](CC(C)C)C(=O)N[C@H](C(=O)N[C@@H](CCCCN)C(=O)NCC(=O)N[C@@H](CCCNC(=N)N)C(N)=O)C(C)C [GLP-1, reference compound]
duration of action (in words) [2]: largely gone by 60 minutes

95% confidence interval of EC50 of glucose lowering effect [3]: 0.1 to 1.92 µg | EC50 of glucose lowering effect [3]: 0.4 µg | amount of GLP-1 receptor activation as measured by cAMP production [4]: the same
Molecule: CC[C@H](C)[C@H](NC(=O)[C@H](Cc1ccccc1)NC(=O)[C@H](CCC(=O)O)NC(=O)[C@H](CCCCN)NC(=O)[C@H](C)NC(=O)[C@H](C)NC(=O)[C@H](CCC(N)=O)NC(=O)CNC(=O)[C@H](CCC(=O)O)NC(=O)[C@H](CC(C)C)NC(=O)[C@H](Cc1ccc(O)cc1)NC(=O)[C@H](CO)NC(=O)[C@H](CO)NC(=O)[C@@H](NC(=O)[C@H](CC(=O)O)NC(=O)[C@H](CO)NC(=O)[C@@H](NC(=O)[C@H](Cc1ccccc1)NC(=O)[C@@H](NC(=O)CNC(=O)[C@@H](NC(=O)[C@H](C)NC(=O)[C@@H](N)Cc1c[nH]cn1)C(C)(C)C(=O)O)[C@@H](C)O)[C@@H](C)O)C(C)C)C(=O)N[C@@H](C)C(=O)N[C@@H](Cc1c[nH]c2ccccc12)C(=O)N[C@@H](CC(C)C)C(=O)N[C@H](C(=O)N[C@@H](CCCCN)C(=O)NCC(=O)N[C@@H](CCCNC(=N)N)C(N)=O)C(C)C [TPA1B4, HAXGTFTSDVSSYLEGQAAKEFIAWLVKGR-NH2]
blood glucose level reached (in words) ([2]; db mice): within the range observed for normal mice | duration of blood glucose lowering effect ([2]; db mice): at least 90 minutes | time of return of blood glucose to hyperglycemic values ([2]; db mice): ≤ 4 h

half-life [1]: 41 min
Molecule: APISWS-NH2 [Ala-Pro-Ile-Ser-Trp-Ser-NH2]

Molecule: APLSWS-NH2 [Ala-Pro-Leu-Ser-Trp-Ser-NH2]
half-life [1]: 49 min

Molecule: HAXGTFTSDVSSYLEGQAAKEFIAWLVKGRZ-NH2 (HAXGTFTSDVSSYLEGQAAKEFIAWLVKGRX; β-dimethyl Asp, biphenylalanine, C-terminal amide) [DGS69]
duration of action (in words) [2]: significantly increased the duration
